Assay [1] deals with T1, Serine/threonine-protein kinase haspin (Homo sapiens) (UniProt Q8TF76).
T1 sequence (whole entry): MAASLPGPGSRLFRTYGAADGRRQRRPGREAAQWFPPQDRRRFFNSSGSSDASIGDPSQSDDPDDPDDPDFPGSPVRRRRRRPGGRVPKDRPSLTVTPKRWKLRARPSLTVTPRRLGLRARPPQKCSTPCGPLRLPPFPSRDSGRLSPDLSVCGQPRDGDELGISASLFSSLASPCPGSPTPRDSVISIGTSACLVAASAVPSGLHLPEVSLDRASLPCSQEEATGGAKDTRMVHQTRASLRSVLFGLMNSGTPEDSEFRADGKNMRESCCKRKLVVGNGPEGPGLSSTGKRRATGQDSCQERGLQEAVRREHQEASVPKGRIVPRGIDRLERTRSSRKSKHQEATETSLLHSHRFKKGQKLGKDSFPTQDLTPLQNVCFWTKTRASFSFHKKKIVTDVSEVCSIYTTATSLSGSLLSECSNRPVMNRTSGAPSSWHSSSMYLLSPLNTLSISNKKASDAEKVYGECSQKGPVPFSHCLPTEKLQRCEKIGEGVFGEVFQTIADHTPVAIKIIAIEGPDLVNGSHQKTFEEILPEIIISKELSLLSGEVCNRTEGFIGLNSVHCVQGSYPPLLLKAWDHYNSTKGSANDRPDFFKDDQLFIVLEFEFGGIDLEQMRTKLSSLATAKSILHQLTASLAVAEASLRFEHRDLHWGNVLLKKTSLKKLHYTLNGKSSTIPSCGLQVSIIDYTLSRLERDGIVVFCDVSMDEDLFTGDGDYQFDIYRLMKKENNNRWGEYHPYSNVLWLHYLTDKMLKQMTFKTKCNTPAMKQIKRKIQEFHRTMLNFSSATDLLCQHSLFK
The experiment in a line: Inhibition of recombinant human haspin kinase domain (470 to 798 residues) extracted from bacteria using histone H3 (1 to 21) peptide as substrate assessed as residual activity at 10 uM incubated for 30 mins in presence of ATP by ADP-Glo kinase assay relative to control.

The target of assay [2] is T1, Serine/threonine-protein kinase haspin (Homo sapiens). Nature of the assay: Inhibition of recombinant human haspin kinase domain (470 to 798 residues) extracted from bacteria using histone H3 (1 to 21) peptide as substrate assessed as residual activity at 1 uM incubated for 30 mins in presence of ATP by ADP-Glo kinase assay relative to control.
In assay [3] the target is Dual specificity tyrosine-phosphorylation-regulated kinase 1A (Rattus norvegicus) (UniProt Q63470). Nature of the assay: Inhibition of recombinant rat DYRK1A kinase domain (1 to 499 residues) extracted from bacteria using KKISGRLSPIMTEQ as substrate assessed as enzyme residual activity at 10 uM incubated for 30 mins in presence of ATP by ADP-Glo kinase assay relative to control.

Assay [4] concerns the target Dual specificity protein kinase CLK1 (Mus musculus) (UniProt P22518). The experiment in a line: Inhibition of recombinant mouse CLK1 extracted from bacteria using GRSRSRSRSRSR as substrate assessed as enzyme residual activity at 10 uM incubated for 30 mins in presence of ATP by ADP-Glo kinase assay relative to control.
The target is the same in assay [5]. The experiment in a line: Inhibition of recombinant mouse CLK1 extracted from bacteria using GRSRSRSRSRSR as substrate assessed as enzyme residual activity at 1 uM incubated for 30 mins in presence of ATP by ADP-Glo kinase assay relative to control.
For assay [6], the target named is Dual specificity tyrosine-phosphorylation-regulated kinase 1A (Rattus norvegicus) (UniProt Q63470). The experiment in a line: Inhibition of recombinant rat DYRK1A kinase domain (1 to 499 residues) extracted from bacteria using KKISGRLSPIMTEQ as substrate assessed as enzyme residual activity at 1 uM incubated for 30 mins in presence of ATP by ADP-Glo kinase assay relative to control.

A short description of assay [7]: Inhibition of recombinant human CDK9/Cyclin T extracted from baculovirus infected Sf9 cells using YSPTSPSYSPTSPSYSPTSPSKKKK as substrate assessed as enzyme residual activity at 10 uM incubated for 30 mins in presence of ATP by ADP-Glo kinase assay relative to control.
The nature of assay [8]: Inhibition of recombinant human CDK9/Cyclin T extracted from baculovirus infected Sf9 cells using YSPTSPSYSPTSPSYSPTSPSKKKK as substrate assessed as enzyme residual activity at 1 uM incubated for 30 mins in presence of ATP by ADP-Glo kinase assay relative to control.
Assay [9] has as its target Glycogen synthase kinase-3 beta (Homo sapiens) (UniProt P49841). The experiment in a line: Inhibition of recombinant human GSK3beta extracted from baculovirus infected Sf9 cells using GS-1 (YRRAAVPPSPSLSRHSSPHQSpEDEEE) peptide as substrate assessed as enzyme residual activity at 10 uM incubated for 30 mins in presence of ATP by ADP-Glo kinase assay relative to control.

Assay [10] shares this target. Nature of the assay: Inhibition of recombinant human GSK3beta extracted from baculovirus infected Sf9 cells using GS-1 (YRRAAVPPSPSLSRHSSPHQSpEDEEE) peptide as substrate assessed as enzyme residual activity at 1 uM incubated for 30 mins in presence of ATP by ADP-Glo kinase assay relative to control.
The target in assay [11] is Casein kinase I isoform epsilon (Homo sapiens) (UniProt P49674). The experiment in a line: Inhibition of recombinant human CK1epsilon extracted from baculovirus infected Sf9 cells using RRKHAAIGSpAYSITA peptide as substrate assessed as enzyme residual activity at 10 uM incubated for 30 mins in presence of ATP by ADP-Glo kinase assay relative to control.
Casein kinase I isoform epsilon (Homo sapiens), sequence (P49674 whole entry, looked up, canonical isoform): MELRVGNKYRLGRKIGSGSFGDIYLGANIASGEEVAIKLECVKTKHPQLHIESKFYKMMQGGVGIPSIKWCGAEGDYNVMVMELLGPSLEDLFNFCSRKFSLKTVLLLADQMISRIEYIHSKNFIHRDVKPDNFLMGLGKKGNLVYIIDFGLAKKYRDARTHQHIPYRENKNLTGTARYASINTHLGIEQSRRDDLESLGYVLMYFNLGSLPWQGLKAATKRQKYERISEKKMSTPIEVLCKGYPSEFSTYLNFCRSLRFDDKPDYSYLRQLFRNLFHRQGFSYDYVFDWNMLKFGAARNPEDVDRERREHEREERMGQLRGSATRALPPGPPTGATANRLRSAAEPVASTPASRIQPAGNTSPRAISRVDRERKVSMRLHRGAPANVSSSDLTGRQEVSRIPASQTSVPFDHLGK
The target is the same in assay [12]. Nature of the assay: Inhibition of recombinant human CK1epsilon extracted from baculovirus infected Sf9 cells using RRKHAAIGSpAYSITA peptide as substrate assessed as enzyme residual activity at 1 uM incubated for 30 mins in presence of ATP by ADP-Glo kinase assay relative to control.
In assay [13] the target is T2, Cyclin-dependent kinase 5/CDK5 activator 1 (Homo sapiens) (UniProt Q00535+Q15078). The experiment in a line: Inhibition of recombinant human CDK5/p25 extracted from bacteria using histone H1 as substrate assessed as enzyme residual activity at 10 uM incubated for 30 mins in presence of ATP by ADP-Glo kinase assay relative to control. In kind it is protein-complex assay.
T2 sequence (Q00535 whole entry): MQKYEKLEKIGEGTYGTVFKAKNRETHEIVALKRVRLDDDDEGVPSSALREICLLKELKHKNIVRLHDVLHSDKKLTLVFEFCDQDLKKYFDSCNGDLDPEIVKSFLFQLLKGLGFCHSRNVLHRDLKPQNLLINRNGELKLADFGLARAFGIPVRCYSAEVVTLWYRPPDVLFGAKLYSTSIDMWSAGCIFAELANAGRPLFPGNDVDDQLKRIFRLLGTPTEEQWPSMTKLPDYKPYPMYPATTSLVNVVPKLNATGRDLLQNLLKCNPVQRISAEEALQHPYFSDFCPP
T2 sequence (Q15078 99-307 partner limits assumed): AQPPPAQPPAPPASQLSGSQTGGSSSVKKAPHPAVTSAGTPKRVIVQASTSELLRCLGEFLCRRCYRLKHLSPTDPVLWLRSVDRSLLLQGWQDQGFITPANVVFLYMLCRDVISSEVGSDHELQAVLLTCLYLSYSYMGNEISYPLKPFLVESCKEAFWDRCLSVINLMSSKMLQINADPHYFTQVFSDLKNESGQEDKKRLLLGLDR

The target of assay [14] is T2, Cyclin-dependent kinase 5/CDK5 activator 1 (Homo sapiens). Nature of the assay: Inhibition of recombinant human CDK5/p25 extracted from bacteria using histone H1 as substrate assessed as enzyme residual activity at 1 uM incubated for 30 mins in presence of ATP by ADP-Glo kinase assay relative to control. The class given is protein-complex assay.
In assay [15] the target is T3, Serine/threonine-protein kinase pim-1 (Homo sapiens, UniProt P11309). Nature of the assay: Inhibition of recombinant human PIM-1 extracted from bacteria using histone H1 as substrate assessed as enzyme residual activity at 10 uM incubated for 30 mins in presence of ATP by ADP-Glo kinase assay relative to control.
T3 sequence (P11309 whole entry, looked up): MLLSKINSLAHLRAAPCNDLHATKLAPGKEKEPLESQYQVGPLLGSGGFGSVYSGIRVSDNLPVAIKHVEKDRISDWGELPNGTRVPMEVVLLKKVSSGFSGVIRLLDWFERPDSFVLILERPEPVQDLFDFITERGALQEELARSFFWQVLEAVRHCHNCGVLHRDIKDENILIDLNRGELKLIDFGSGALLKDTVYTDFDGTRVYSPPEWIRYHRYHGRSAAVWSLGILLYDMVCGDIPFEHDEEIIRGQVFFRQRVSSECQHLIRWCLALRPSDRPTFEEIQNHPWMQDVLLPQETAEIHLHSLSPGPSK
The target in assay [16] is T3, Serine/threonine-protein kinase pim-1. The experiment in a line: Inhibition of recombinant human PIM-1 extracted from bacteria using histone H1 as substrate assessed as enzyme residual activity at 1 uM incubated for 30 mins in presence of ATP by ADP-Glo kinase assay relative to control.
In assay [17] the target is T4, Serine/threonine-protein kinase haspin (Homo sapiens, UniProt Q8TF76).
T4 sequence (Q8TF76 whole entry): T1 sequence (whole entry)
The experiment in a line: Inhibition of recombinant human haspin kinase domain (470 to 798 residues) extracted from bacteria using histone H3 (1 to 21) peptide as substrate incubated for 30 mins in presence of ATP by ADP-Glo kinase assay.

Dual specificity protein kinase CLK1 (Mus musculus), sequence (P22518 whole entry, looked up): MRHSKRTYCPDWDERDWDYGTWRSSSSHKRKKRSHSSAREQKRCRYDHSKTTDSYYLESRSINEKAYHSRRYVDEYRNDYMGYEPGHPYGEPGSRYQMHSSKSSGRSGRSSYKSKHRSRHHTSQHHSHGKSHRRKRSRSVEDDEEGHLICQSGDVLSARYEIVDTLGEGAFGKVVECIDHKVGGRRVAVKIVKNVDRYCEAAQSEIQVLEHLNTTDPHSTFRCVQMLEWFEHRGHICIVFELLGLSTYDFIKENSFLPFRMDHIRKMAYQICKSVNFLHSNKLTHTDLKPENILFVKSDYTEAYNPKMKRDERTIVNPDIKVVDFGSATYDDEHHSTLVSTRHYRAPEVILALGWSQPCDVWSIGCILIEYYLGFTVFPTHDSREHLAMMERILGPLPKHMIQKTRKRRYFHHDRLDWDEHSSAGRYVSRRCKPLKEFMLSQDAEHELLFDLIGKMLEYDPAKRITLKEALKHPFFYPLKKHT
Glycogen synthase kinase-3 beta (Homo sapiens), sequence (P49841 whole entry, looked up): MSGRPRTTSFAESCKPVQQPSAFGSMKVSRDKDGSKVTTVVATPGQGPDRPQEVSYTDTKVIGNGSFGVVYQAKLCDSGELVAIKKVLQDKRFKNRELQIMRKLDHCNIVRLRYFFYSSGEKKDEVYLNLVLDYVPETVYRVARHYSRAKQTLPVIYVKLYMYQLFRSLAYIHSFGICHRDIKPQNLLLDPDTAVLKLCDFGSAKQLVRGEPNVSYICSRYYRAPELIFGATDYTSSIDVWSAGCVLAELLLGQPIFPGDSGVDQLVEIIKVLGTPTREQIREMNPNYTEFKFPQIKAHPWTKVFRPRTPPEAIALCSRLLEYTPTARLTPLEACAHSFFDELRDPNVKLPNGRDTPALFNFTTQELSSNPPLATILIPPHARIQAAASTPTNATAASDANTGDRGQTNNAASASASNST

In the case of `O=C1CCC(N2C(=O)c3cccc(NCCOCCOCCOCCn4cc(-c5ccncc5)c5cc6ccncc6cc54)c3C2=O)C(=O)N1` (stereo not given), the Activity in assay [1] is 71%; in [2], 67%; in assay [3], 64%; in assay [4], 89%; in [5], 100%; in assay [6], 90%. Besides, the Activity in assay [7] was found to be 96%; in assay [8], 97%; in assay [9], 81%; in [10], 84%; in assay [11] it was 84%; in [12], 99%. The Activity was found to be 100% in assay [13], 100% in assay [14], 64% in assay [15] and 74% in assay [16].

On to `O=C1CCC(N2C(=O)c3cccc(NCCOCCOCCOCCn4cc(I)c5cc6ccncc6cc54)c3C2=O)C(=O)N1` (stereo not given), for which the Activity in assay [1] worked out at 100%; in assay [2], 80%.

`c1cc2cc3c(cc2cn1)NCC3`: the Activity in [1] came out at 28%; in assay [2], 66%; in assay [3], 66%; in assay [4], 80%; in assay [5], 98%; in assay [6] it was 68%. In addition, the Activity in [7] was determined as 62%; in assay [8], 75%; in assay [9], 80%; in assay [10], 78%; in [11], 96%; in [12], 92%. In addition, the Activity came out at 88% in assay [13], 89% in [14], 70% in assay [15] and 65% in [16].

As for `O=C1CCC(N2C(=O)c3cccc(NCCOCCOCCOCCn4cc(Br)c5cc6ccncc6cc54)c3C2=O)C(=O)N1` (stereo not given), the results for the Activity in assay [1] and in [2] were 86% and 98%, respectively.

For `O=C1CCC(N2C(=O)c3cccc(NCCOCCOCCOCCn4cc(-c5cccnc5)c5cc6ccncc6cc54)c3C2=O)C(=O)N1` (stereo not given), the Activity turned out to be 71% in assay [1]; 70% in [2]; 74% in assay [3]; 79% in [4]; 90% in assay [5]; 65% in assay [6]. In addition, the Activity worked out at 81% in assay [7]; 91% in [8]; 74% in assay [9]; 86% in [10]; 91% in [11]; 100% in assay [12]. Moreover, the Activity amounted to 100% in [13], 100% in assay [14], 66% in [15] and 61% in assay [16].

As to `c1cc2c(ccc3cc[nH]c32)cn1`, the Activity worked out at 9% in assay [1]; 39% in assay [2]; 31% in assay [3]; 43% in [4]; 80% in [5]; 50% in [6]. Also, the Activity in assay [7] came out at 45%; in assay [8], 59%; in assay [9], 76%; in assay [10] it was 82%; in assay [11], 94%; in assay [12], 95%. In addition, the Activity in [13] is 63%; in [14], 77%; in assay [15], 38%; in [16] it was 64%. In assay [17], the IC50 was 258 nM.

On to `Cn1cc(-c2ccccn2)c2cc3ccncc3cc21`, for which the Activity in [1] was 7%; in [2], 25%; in assay [3], 23%; in [4], 36%; in assay [5], 73%; in assay [6], 63%. Also, the Activity in assay [7] is 49%; in assay [8] it was 77%; in assay [9], 53%; in [10], 67%; in assay [11], 89%; in assay [12], 100%. The Activity in [13] is 100%; in [14], 100%; in assay [15] it was 38%; in assay [16], 74%. Besides, the IC50 in assay [17] came out at 173 nM.

On to `O=C1CCC(N2C(=O)c3cccc(NCCOCCOCCOCCNC(=O)c4c[nH]c5cc6cnccc6cc45)c3C2=O)C(=O)N1` (stereo not given), for which the Activity in assay [1] came to 60%; in [2], 74%; in [3] it was 84%; in assay [4], 97%; in assay [5], 97%; in [6] it was 90%. Further, the Activity in [7] is 86%; in [8], 100%; in assay [9], 85%; in assay [10], 82%; in [11], 99%; in assay [12], 100%. The Activity is 100% in assay [13], 100% in [14], 75% in assay [15] and 67% in assay [16].

With `O=C1CCC(N2C(=O)c3cccc(NCCOCCOCCOCCn4ccc5cc6ccncc6cc54)c3C2=O)C(=O)N1` (stereo not given), the Activity came to 83% in assay [1]; 95% in assay [2]; 87% in assay [3]; 94% in assay [4]; 100% in assay [5]; 100% in assay [6]. Also, the Activity in assay [7] stood at 88%; in [8], 91%; in [9], 81%; in [10], 93%; in [11] it was 97%; in assay [12], 100%. In addition, the Activity was 100% in [13], 100% in assay [14], 86% in assay [15] and 95% in assay [16].

As to `O=C1CCC(N2C(=O)c3cccc(NCCOCCOCCOCCn4cc(Cl)c5cc6ccncc6cc54)c3C2=O)C(=O)N1` (stereo not given), the results for the Activity in assay [1] and in assay [2] were 90% and 78%, respectively.

(Values after ChEMBL document CHEMBL6182870, “Synthesis and biological activity of 1H-pyrrolo[3,2-g]isoquinolines as Haspin kinase inhibitors” (Bioorg Med Chem, 2025).)
